Results from PubChem BioAssay (NCI).
Where “and” joins values, the source holds several entries; their conditions need not be identical. Equal entries are not always repeated.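 Five compound concentrations were applied to cells in 96-well plates for 48 hours; endpoints were derived by simple linear interpolation of the resulting dose-response curve. Abbreviation: GI50, concentration required for 50% inhibition of growth. Definition used: TGI = concentration required for complete inhibition of growth.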 Where a SMILES comes first, the peptide text is derived from it. [ ]: non-standard residue; d: D form. pGlu = O=C1CC[CH](C(=O)O)N1

How the values were obtained:
Experiment in all cases: DTP human tumour cell line panel, 48 h
[1] = system: 786-0 renal
[2] = system: HCT-116 colon
[3] = system: SF-295 CNS
[4] = system: CAKI-1 renal
[5] = system: CCRF-CEM leukemia
[6] = system: SR leukemia
[7] = system: OVCAR-4 ovarian
[8] = system: BT-549 breast
[9] = system: A549 NSCLC
[10] = system: HT29 colon

Compound | GI50 [1] [µM] | TGI [1] | GI50 [2] [µM] | TGI [2] | GI50 [3] [µM] | TGI [3] [µM] | GI50 [4] [µM] | TGI [4] [µM] | GI50 [5] [µM] | TGI [5] | GI50 [6] [µM] | TGI [6] | GI50 [7] [µM] | TGI [7] [µM] | GI50 [8] [µM] | TGI [8] [µM] | GI50 [9] [µM] | TGI [9] | GI50 [10] [µM] | TGI [10]
O=C(CCCCCCNC(=O)c1cnc(N(c2ccccc2)c2ccccc2)nc1)NO | 6.18 | > 73.1 µM | 2.07 | > 33.9 µM | 2.95 | 10.8 | 6.38 | 43.3 | 1.03 | > 100 µM | 1.22 | > 100 µM | 5.56 | 72.9 | 12.5 | > 84.3 | 6.12 | > 92.7 µM | 2.29 | > 35.4 µM
C=C(CN1C(=O)CN(C)C1=O)c1ccc(C(=O)Nc2ccccc2N)cc1 | 30.1 | > 100 µM | 6.7 | 36.3 µM | 19.5 | > 100 | 18.6 | 58.7 | 11.6 | 87.3 µM | 1.41 | 10.7 µM | 4.65 | 35.8 | 61.8 | > 100 | 25.4 | > 100 µM | 10.9 | 41.5 µM
CCCCON(OC(=O)c1ccc2ccccc2c1)C(=O)c1ccccc1 | 73.4 | > 100 µM | 34.8 | > 100 µM | > 100 | > 100 | > 100 | > 100 | 21.4 | 57.3 µM | 31.5 | 77.1 µM | > 100 | > 100 | 92.3 | > 100 | > 100 | > 100 µM | > 100 | > 100 µM
O=c1[nH]nnc2c1ncn2C1OC(CO)C(O)C1O (centres undefined) | 24 | > 100 µM | 7.59 | > 100 µM | 1.65 | 47 | 0.998 | 32.5 | 3.19 | > 100 µM | 3.21 | 59.7 µM | 5.02 | > 100 | > 100 | > 100 | 75.7 | > 100 µM | 13 | > 100 µM
C=C(C)[C@@H]1CC[C@]2(C)CC[C@]3(C)[C@H](CC[C@@H]4[C@@]5(C)CC[C@H](O)C(C)(C)[C@@H]5CC[C@]43C)[C@@H]12 |  | > 63.8 µM |  | > 100 µM |  | > 82.7 |  | > 100 |  | 48.9 µM |  | > 100 µM |  | > 100 |  | 29.3 |  | > 100 µM |  | > 100 µM
COc1cc(C(O)CCBr)c(OC)cc1C (centres undefined) |  | > 100 µM |  | > 100 µM |  | > 73.1 |  | > 100 |  | > 52.7 µM |  | > 31.6 µM |  | > 100 |  | > 84.4 |  | > 100 µM |  | > 58.3 µM
O.O.[NH-]C1(C(=O)O)CCCC1.[NH-]C1(C(=O)O)CCCC1.[Ni+2] | > 100 | > 100 µM |  | > 100 µM |  | > 100 |  | > 100 |  | > 100 µM | 65.9 | > 100 µM |  | > 100 | > 100 | > 100 |  | > 100 µM |  | > 100 µM
CCOC(=O)Nc1ccc2c(c1)/C(=N\NC(N)=S)c1ccccc1-2 | 3.06 | 9.08 µM | 4.32 | 50 µM | 2.37 | 7.59 | 3.22 | 15.2 | 3.49 | 31.5 µM | 3.13 | 24.3 µM | 4.39 | 39.1 | 4.24 | 14.3 | 3.79 | 19.7 µM | 3.23 | 13 µM
C=C1C(=O)O[C@@H]2C[C@@H](C)[C@@H]3C=CC(=O)[C@@]3(C)[C@@H](O)[C@H]12 |  | 5.4 µM |  | 4.06 µM |  | 6.48 |  | 1.2 |  | 2.05 µM |  | 2.65 µM |  | 10.5 |  | 2.32 |  | 11.8 µM |  | 3.88 µM
COc1cccc(N2CCN(CC(=O)N3CCN(c4nnc(-c5ccc(Cl)cc5)c(-c5ccc(Cl)cc5)n4)CC3)CC2)c1 | 16.3 | 62.3 µM | 5.98 | > 100 µM | 28.9 | > 100 | 14.8 | > 100 | 27.2 | > 100 µM | 5.04 | 31.3 µM | 25.3 | > 100 | 12.9 | > 100 | 38.1 | > 100 µM | 6.47 | > 100 µM
N=C1C(c2nc3ccccc3s2)=C(O)CN1c1ccc(F)c(Cl)c1 | 22.7 | 57.1 µM | 24.2 | > 100 µM | 18.8 | > 100 | 14.8 | 98.1 | 36.8 | > 100 µM | 0.666 | 6.33 µM | 20.5 | > 100 | 30.2 | > 100 | 11.2 | 62.2 µM | 28.9 | > 100 µM
COc1ccc(-c2nn(-c3cccc(Cl)c3)cc2-c2cc(-c3cccs3)[nH]c(=S)n2)cc1 | 4.18 | > 100 µM | 2.38 | 11.2 µM | 2.07 | 7.09 | 3.03 | 8.68 | 2.8 | > 100 µM | 4 | 31.9 µM | 3.47 | > 100 | 3.18 | 15.9 | 2.29 | 16.5 µM | 3.82 | 13 µM
CC[C@@H]1c2c(C#N)ncn2-c2cnc(Nc3ccc(C(=O)NC4CCN(C5CCN(CC6CC6)CC5)CC4)cc3OC)nc2N1C1CCCC1 | 0.164 | 1.2 µM | 0.0313 | 1.19 µM | 0.0454 | 1.94 | 1.62 | 3.88 | 0.00738 | 1.58 µM | 0.0387 | 1.02 µM | 0.214 | 1.7 | 0.485 | 1.85 | 0.0401 | 1.12 µM | 0.036 | 0.135 µM
O=c1[nH]c(=O)c2cn[nH]c2[nH]1 | > 100 | > 100 µM | > 100 | > 100 µM | > 100 | > 100 | > 100 | > 100 | > 100 | > 100 µM | > 100 | > 100 µM | > 100 | > 100 | > 100 | > 100 | > 100 | > 100 µM | > 100 | > 100 µM
CSC(=Nc1nnc(-c2ccc([N+](=O)[O-])cc2)s1)SC |  | 55.5 µM |  | > 83.7 µM |  | 50 |  | 38.4 |  | > 100 µM |  | > 100 µM |  | > 85 |  | > 100 |  | > 100 µM |  | > 100 µM
CCOC(=O)c1c(C)nc2c(c1N)CC(=O)N2Cc1ccc(OC)cc1 | 3.45 | 27.8 µM |  |  | 2.53 | 7.37 | > 100 | > 100 | > 100 | > 100 µM | 63.1 | > 100 µM | > 100 | > 100 | 6.3 | > 100 |  |  | > 100 | > 100 µM
COc1ccc(-c2cc3c(c4cc(OC)ccc24)C(=O)OC3=O)cc1 |  | > 100 µM |  | > 100 µM |  | > 100 |  | > 100 |  | > 100 µM |  | > 100 µM |  | > 100 |  | > 100 |  | > 100 µM |  | > 100 µM
CCN(Cc1cc(Nc2nc(C)cn3c(-c4cn[nH]c4)cnc23)sn1)C(C)(C)CO | 0.0473 | 2.73 µM | 0.0127 | 2.3 µM | 0.0468 | 3.36 | 0.0358 | 11.5 | < 0.01 | 9.55 µM | < 0.01 | 1.64 µM | < 0.0108 | 8.38 | 0.0458 | 1.18 | 0.0543 | 2.21 µM | 0.0725 | 0.812 µM
COC12C=C/C(=C(/C(=O)OCc3cncnc3)C(=O)CCCCCCCCC3(OC)C=C/C(=C(/C(=O)OCc4cncnc4)C(=O)CCCCCCCC1)O3)O2 | 0.433 | 1.47 µM | 0.146 | 0.433 µM | 0.326 | 1.74 | 0.667 | 2.11 | 0.196 | 3.79 µM | 0.155 | 6.61 µM | 0.548 | 2.81 | 0.188 | 2.07 | 0.848 | 2.24 µM | 0.21 | 1.09 µM
CCNC(=O)C1CCCN1C(=O)C(CCCN=C(N)N)NC(=O)C(CC(C)C)NC(=O)C(CC(C)C)NC(=O)C(Cc1ccc(O)cc1)NC(=O)C(CO)NC(=O)C(Cc1c[nH]c2ccccc12)NC(=O)C(Cc1cnc[nH]1)NC(=O)C1CCC(=O)N1 (centres undefined) ([pGlu]HWSYLLRP-NHEt; configuration not given here) | > 100 | > 100 µM | > 100 | > 100 µM | > 100 | > 100 | > 100 | > 100 | 81.7 | > 100 µM | > 100 | > 100 µM | > 100 | > 100 | > 100 | > 100 | > 100 | > 100 µM | > 100 | > 100 µM
C/C=C(\C)C(=O)NC1=CC[C@@]2(C)C(=CCC3C2CC[C@@]2(C)C3CC[C@@H]2C(C)N(C)C)C1=O (some centres undefined) | 2.54 | 7.45 µM | 1.41 | 3.1 µM | 2.32 | 7.33 | 2.86 | 11.4 | 2.58 | 15.3 µM |  |  | 4.58 | > 50.2 | 3.39 | 15.8 | 4.99 | 23.4 µM | 0.57 | 2.6 µM
CN(Cc1ccccc1)C(=NC#N)N(Cc1ccccc1)Cc1ccccc1 |  | 97.6 µM |  | > 55.3 µM |  | 47.4 |  | 58.6 |  | > 100 µM |  | > 100 µM |  | > 93 |  | 49.6 |  | > 100 µM |  | 36.3 µM
Cc1c[n+](=O)c2ccccc2n1[O-] |  | > 100 µM |  | > 100 µM |  | > 100 |  | > 100 |  | > 100 µM |  | > 100 µM |  | > 100 |  | > 100 |  | > 100 µM |  | > 100 µM
CN(CCO)CC[C@H](CSc1ccccc1)Nc1ccc(S(=O)(=O)NC(=O)c2ccc(N3CCC([C@@H](O)c4ccccc4-c4ccc(Cl)cc4)CC3)cc2)cc1S(=O)(=O)C(F)(F)F | 3.62 | 10.1 µM | 2.26 | 6.8 µM | 4.23 | 25.3 |  | > 29.2 | 0.0472 | > 100 µM | 2.23 | 35.7 µM | 17.6 | > 100 | 2.69 | 11 | > 100 | > 100 µM | 7.45 | 60.6 µM
CCOC(=O)N1CCN(/[N+]([O-])=N/Oc2ccc([N+](=O)[O-])cc2[N+](=O)[O-])CC1 | 0.322 | 1.64 µM | 0.929 | 3.66 µM | 1.73 | 4.56 | 0.521 | 1.96 | 0.158 | 12.2 µM |  |  | 0.438 | 1.78 | 2.62 | 18.6 | 3.63 | 14.1 µM | 0.322 | 15.7 µM
C=C(C)C(O)CCC1(C)C=Cc2c(c(C)cc3c2[nH]c2ccccc23)O1 (centres undefined) | 3.88 | 10.8 µM and 14.2 µM | 9.87 | 25 µM and 21.5 µM |  | 14.8 |  |  | 4.2 | 25 µM and 16.7 µM | 4.43 | 25 µM and 16.5 µM |  | 30.8 | 12.9 | 25.5 | 5.02 | 25 µM and 16.1 µM | 1.71 | 8.53 µM and 3.26 µM
CC(C)Cn1cnc2c(SCc3ccc(Cl)cc3Cl)nc(N)nc21 |  | > 100 µM |  | > 100 µM |  | > 100 |  | > 100 |  |  |  | 25.8 µM |  | > 100 |  | > 100 |  | > 100 µM |  | > 100 µM
